# Key:
# [1] = system: COLO 205; assay: Antiproliferative activity against human COLO205 cells after 96 hrs by CCK-8 assay; assay type: functional, cell-based; details: COLO 205, 96 h
# [2] = system: COLO 205; assay: Antitumor activity against human COLO205 cells xenografted in nude BALB/c mouse assessed as tumor volume at 100 mg/kg, po administered once daily for 3 weeks measured twice per week relative to control; assay type: functional
# [3] = target: Cyclin-dependent kinase 6 (Homo sapiens, UniProt Q00534); assay: Inhibition of CDK6 (unknown origin) using U-light as substrate preincubated for 1 hr followed by EDTA addition measured after 1 hr by LANCE Ultra kinase assay
# Sequence of Cyclin-dependent kinase 6 (Q00534 whole entry): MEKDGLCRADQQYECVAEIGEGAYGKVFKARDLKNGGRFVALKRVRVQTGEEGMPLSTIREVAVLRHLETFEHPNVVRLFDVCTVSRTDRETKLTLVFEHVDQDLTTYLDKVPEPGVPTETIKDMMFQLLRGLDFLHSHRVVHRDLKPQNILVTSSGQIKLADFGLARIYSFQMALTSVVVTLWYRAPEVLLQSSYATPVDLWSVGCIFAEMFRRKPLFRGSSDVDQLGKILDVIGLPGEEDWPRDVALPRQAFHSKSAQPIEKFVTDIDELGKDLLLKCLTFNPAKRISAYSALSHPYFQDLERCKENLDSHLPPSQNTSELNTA
# [4] = target: Cyclin-dependent kinase 4 (Homo sapiens, UniProt P11802); assay: Inhibition of CDK4 (unknown origin) using U-light as substrate preincubated for 1 hr followed by EDTA addition measured after 1 hr by LANCE Ultra kinase assay
# Sequence of Cyclin-dependent kinase 4 (P11802 whole entry): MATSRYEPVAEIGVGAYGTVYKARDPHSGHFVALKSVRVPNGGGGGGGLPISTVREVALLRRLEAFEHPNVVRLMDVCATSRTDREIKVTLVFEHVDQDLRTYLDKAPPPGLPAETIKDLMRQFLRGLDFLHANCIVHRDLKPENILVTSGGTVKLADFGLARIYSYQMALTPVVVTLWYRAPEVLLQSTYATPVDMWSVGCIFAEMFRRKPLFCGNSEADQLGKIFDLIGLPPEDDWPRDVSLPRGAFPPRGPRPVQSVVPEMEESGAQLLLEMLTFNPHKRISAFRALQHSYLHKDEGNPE
# [5] = target: Cyclin-dependent kinase 1 (Homo sapiens, UniProt P06493); assay: Inhibition of CDK1 (unknown origin) using U-light as substrate preincubated for 1 hr followed by EDTA addition measured after 1 hr by LANCE Ultra kinase assay
# Sequence of Cyclin-dependent kinase 1 (P06493 whole entry): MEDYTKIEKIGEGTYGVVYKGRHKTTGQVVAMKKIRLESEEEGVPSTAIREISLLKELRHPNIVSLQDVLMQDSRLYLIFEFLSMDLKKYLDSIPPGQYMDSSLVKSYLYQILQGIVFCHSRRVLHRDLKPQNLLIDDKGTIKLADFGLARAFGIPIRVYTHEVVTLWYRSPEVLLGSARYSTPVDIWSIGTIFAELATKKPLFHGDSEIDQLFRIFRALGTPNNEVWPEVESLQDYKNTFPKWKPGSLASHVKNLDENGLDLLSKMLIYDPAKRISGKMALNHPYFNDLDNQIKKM
# [6] = Cmax in ICR mouse at 1 mg/kg, iv; assay type: ADME, organism-based; design: dose 1 mg/kg, route intravenous; details: in vivo
# [7] = AUC in ICR mouse at 1 mg/kg, iv; assay type: ADME, organism-based; details: in vivo
# [8] = Clearance in ICR mouse at 1 mg/kg, iv; assay type: ADME, organism-based; details: in vivo
# [9] = Volume of distribution at steady state in ICR mouse at 1 mg/kg, iv; assay type: ADME, organism-based; details: in vivo, read-out: Vdss
# [10] = Half life in ICR mouse at 1 mg/kg, iv; assay type: ADME, organism-based; details: in vivo
# [11] = Oral bioavailability in ICR mouse at 5 mg/kg; assay type: ADME, organism-based; details: in vivo
# [12] = AUC in ICR mouse at 5 mg/kg, po; assay type: ADME, organism-based; details: in vivo
# [13] = system: COLO 205; assay: Antitumor activity against human COLO205 cells xenografted in nude BALB/c mouse assessed as tumor volume at 25 mg/kg, po administered once daily for 3 weeks measured twice per week relative to control relative to control; assay type: functional
# [14] = system: COLO 205; assay: Antitumor activity against human COLO205 cells xenografted in nude BALB/c mouse assessed as tumor volume administered once daily for 3 weeks measured twice per week relative to control; assay type: functional
# [15] = system: Mus musculus; assay: Toxicity in nude BALB/c mouse xenografted with human COLO205 cells assessed as change in body weight at 25 to 100 mg/kg, po administered once daily for 3 weeks; assay type: organism-based; details: in vivo, 504 h
structure (smiles),measurement,setting,value
CCN1CCN(Cc2ccc(Nc3ncc(F)c(-c4cc(F)c5nc(C)n(C(C)C)c5c4)n3)nc2)CC1 [ABEMACICLIB],IC50,[1],460 nM
same,T/C,[2],3.95%
Cc1nc2c(F)cc(-c3cc(Nc4cnc(CN5CCN(C(C)C)CC5)cn4)ncn3)cc2n1C(C)C,IC50,[3],2.3 nM
same,IC50,[4],1.6 nM
same,IC50,[5],97.2 nM
same,IC50,[1],140 nM
Cc1nc2c(F)cc(-c3cc(Nc4cnc(CN5CCN(CC(F)(F)F)CC5)cn4)ncn3)cc2n1C(C)C,IC50,[3],5.8 nM
same,IC50,[4],5.6 nM
same,IC50,[5],150 nM
same,IC50,[1],530 nM
CCN1CCN(Cc2cnc(Nc3cc(-c4cc(F)c5nc(C)n(C(C)C)c5c4)ncn3)cn2)CC1,IC50,[3],2.7 nM
same,IC50,[4],1.5 nM
same,IC50,[5],136 nM
same,IC50,[1],210 nM
same,Cmax,[6],998 ng/mL
same,AUC,[7],571 ng·h/mL
same,clearance,[8],20.8 to 28.8 mL/min/kg
same,Vd,[9],0.57 L/kg
same,half-life,[10],1.6 h
same,bioavailability,[11],89.3%
same,AUC,[12],2550 ng·h/mL
same,T/C,[2],12.37%
same,T/C,[13],54.21%
same,Activity,[14],Dose-dependent effect
same,Activity,[15],Non-Toxic
CCN1CCC(Oc2cnc(Nc3cc(-c4cc(F)c5nc(C)n(C(C)C)c5c4)ncn3)cn2)CC1,IC50,[3],4 nM
same,IC50,[4],8.8 nM
same,IC50,[5],231 nM
same,IC50,[1],460 nM
CCN1CCN(Cc2ccc(Nc3cc(-c4cc(F)c5nc(C)n(C(C)C)c5c4)c(F)cn3)nn2)CC1,IC50,[4],12.1 nM
same,IC50,[5],1670 nM
same,IC50,[1],630 nM
CCN1CCN(Cc2cnc(Nc3cc(-c4cc(F)c5nc(C)n(C(C)C)c5c4)ncn3)nc2)CC1,IC50,[4],35.9 nM
same,IC50,[5],20200 nM
same,IC50,[1],3740 nM
CCN1CCN(Cc2cnc(Nc3cc(-c4cc(F)c5nc(C)n(C(C)C)c5c4)c(F)cn3)cn2)CC1,IC50,[3],1.6 nM
same,IC50,[4],1.6 nM
same,IC50,[5],44 nM
same,IC50,[1],40 nM
same,Cmax,[6],514 ng/mL
same,AUC,[7],425 ng·h/mL
same,clearance,[8],37.6 mL/min/kg
same,Vd,[9],6.44 L/kg
CCN1CCN(Cc2cnc(Nc3cc(-c4cc(F)c5nc(C)n(C(C)C)c5c4)ccn3)cn2)CC1,IC50,[3],1.6 nM
same,IC50,[4],2.1 nM
same,IC50,[5],35.8 nM
same,IC50,[1],50 nM
Cc1nc2c(F)cc(-c3cc(Nc4cnc(CN5CCN(CC6CC6)CC5)cn4)ncn3)cc2n1C(C)C,IC50,[3],2.2 nM
same,IC50,[4],2.9 nM
same,IC50,[5],103 nM
same,IC50,[1],110 nM
CCN1CCN(Cc2ccc(Nc3cc(-c4cc(F)c5nc(C)n(C(C)C)c5c4)ccn3)nc2)CC1,IC50,[3],2.9 nM
same,IC50,[4],2.9 nM
same,IC50,[5],301 nM
same,IC50,[1],140 nM
CCN1CCN(Cc2ccc(Nc3cc(-c4cc(F)c5nc(C)n(C(C)C)c5c4)ncn3)nc2)CC1,IC50,[3],4.4 nM
same,IC50,[4],3.1 nM
same,IC50,[5],412 nM
same,IC50,[1],260 nM
COCCN1CCN(Cc2cnc(Nc3cc(-c4cc(F)c5nc(C)n(C(C)C)c5c4)ncn3)cn2)CC1,IC50,[3],1.6 nM
same,IC50,[4],3.7 nM
same,IC50,[5],140 nM
same,IC50,[1],140 nM
CCN1CCN(Cc2ncc(Nc3cc(-c4cc(F)c5nc(C)n(C(C)C)c5c4)ncn3)cn2)CC1,IC50,[4],5160 nM
Cc1nc2c(F)cc(-c3cc(Nc4cnc(CN5CCN(C6CCCC6)CC5)cn4)ncn3)cc2n1C(C)C,IC50,[3],1.8 nM
same,IC50,[4],2.2 nM
same,IC50,[5],101 nM
same,IC50,[1],160 nM
CCN1CCC(C(C)c2cnc(Nc3cc(-c4cc(F)c5nc(C)n(C(C)C)c5c4)ncn3)cn2)CC1 (centres undefined),IC50,[4],18.3 nM
same,IC50,[5],1410 nM
same,IC50,[1],1510 nM
CCN1CCN(Cc2ccc(Nc3cc(-c4cc(F)c5nc(C)n(C(C)C)c5c4)ncn3)nn2)CC1,IC50,[4],13.8 nM
same,IC50,[5],2430 nM
same,IC50,[1],520 nM
CCN1CCN(Cc2cnc(Nc3ncnc(-c4cc(F)c5nc(C)n(C(C)C)c5c4)c3F)cn2)CC1,IC50,[4],283 nM
same,IC50,[1],5600 nM
CCN1CCC(Cc2cnc(Nc3cc(-c4cc(F)c5nc(C)n(C(C)C)c5c4)ncn3)cn2)CC1,IC50,[3],2.9 nM
same,IC50,[4],2.4 nM
same,IC50,[5],134 nM
same,IC50,[1],320 nM
CCN1CCN(Cc2ccc(Nc3cc(-c4cc(F)c5nc(C)n(C(C)C)c5c4)ccn3)nn2)CC1,IC50,[3],23.6 nM
same,IC50,[4],5.2 nM
same,IC50,[5],801 nM
same,IC50,[1],340 nM
